The structures appear in SMILES notation.

The values that follow come from a melting point compilation (Tetko et al.).

Turning to `CC(C)S(=O)(=O)Nc1ccccc1F`, the melting point (commonly the temperature of the solid-liquid transition) fell in the range of 52 to 54 °C.
Under `O=C1CC(c2ccc(Cl)cc2)N1` (stereo unspecified) stands 90 to 92 °C; under `CC(Cl)C(=O)Nc1ccc2c(c1)OCCCO2` (stereo unspecified), 97 to 99 °C; under `Nc1cc(-c2cccc(Br)c2)ncn1`, 229 to 231 °C.
Under `Cc1cc(C)cc(C(N)c2cccnc2)c1` (stereo unspecified) stands 47 to 49 °C.
Under `COC(=O)c1cccc(OCc2ncon2)c1` stands 102 to 104 °C.
The compound `Nc1ccc2c(c1)S(=O)(=O)CC2` returned a melting point of 197 to 199 °C.
Under `O=c1cc2c(n[nH]1)CCC2` stands 209 to 211 °C.
Next, `O=C(O)c1ccc(COc2ccc3ccccc3c2)o1`: 171 to 173 °C; `NC(=S)c1cc2ccccc2oc1=O`: 241 to 243 °C.
Under `CCOC(=O)c1sc2nc(CN(C)C)nc(Cl)c2c1C` stands 114 to 116 °C; under `COc1cc(Br)c2c(c1)NC(=O)C2=O`, 179 to 181 °C.
For the compound `COc1ccc(N)cc1S(=O)(=O)N1CCCCC1`, the melting point fell in the range of 93 to 95 °C.
Regarding `O=C(O)CC1Sc2ccc(C(F)(F)F)cc2NC1=O` (stereo unspecified), the melting point is 236 to 238 °C.
Next, `CCC1CCC2(CC1)NC(=O)NC2=O` (stereo unspecified): 230 to 232 °C; `Nc1ccccc1NS(=O)(=O)c1cccs1`: 188 to 190 °C; `O=C(O)c1sc2cccc(Cl)c2c1Cl`: 273 to 275 °C.
Next, `O=C(O)c1cc(-c2ccc(Cl)s2)nc2ccccc12`: 242 to 244 °C.
In the case of `Nc1c(C(=O)O)cc([N+](=O)[O-])cc1[N+](=O)[O-]`, the melting point was in the range of 266 to 268 °C.
Next, `O=C1/C(=C\C=C\c2ccco2)CCC/C1=C\C=C\c1ccco1`: 162 to 164 °C; `Cc1ccc(-c2nc3c(s2)C(=O)CCC3)cc1`: 128 to 130 °C.
With `Nc1ccc2c(c1)C(=O)NS2(=O)=O`, the melting point is 286 to 288 °C.
Next, `CN(C(=O)CSc1ccccc1C(=O)O)C1CCCCC1`: 102 to 104 °C; `c1ccc(Nc2nc3ccccc3s2)cc1`: 139 to 141 °C.
The compound `O=C(O)c1ccc(-c2nnn[nH]2)cc1` showed a melting point of 282 to 284 °C.
Next, `O=C(CCl)NCC1(c2ccccc2)CCCCC1`: 54 to 56 °C; `NC(=O)c1ncn2c(C(=O)O)cc(-c3ccccc3)nc12`: 254 to 256 °C.
Under `CCC(N)C(=O)NC(CC)c1ccc(C)cc1` (stereo unspecified) stands 59 to 61 °C; under `CC(C)(C)N1C(=O)CNC1=O`, 84 to 86 °C.
Next, `O=C(O)Cc1csc(-c2cccc(C(F)(F)F)c2)n1`: 109 to 111 °C; `O=C(O)/C=C/c1cn(Cc2ccccc2Cl)nc1-c1ccccc1`: 148 to 150 °C; `O=C(Cc1nc2ccccc2s1)c1ccccc1`: 113 to 115 °C.
Turning to `C=CC(=O)NC(=O)NC`, the melting point was in the range of 174 to 176 °C.
Under `Cc1nn(Cc2ccc(Cl)cc2)c2sc(C(=O)O)cc12` stands 245 to 247 °C; under `CC(C)NC(=O)Nc1cccc(C(=O)O)c1`, 239 to 241 °C; under `Cc1onc2c(=O)[nH]nc(-c3ccccc3)c12`, 235 to 237 °C.
Under `NC(=O)c1ccc(N)cc1N1CCCCC1` stands 142 to 144 °C.
Consider `Nc1nc2cc(Cl)cc(Cl)c2o1`, for which the melting point was 247 to 249 °C.
Next, `COC(=O)c1cc2c(Br)ccc(F)c2[nH]1`: 189 to 191 °C.
The compound `O=C(O)CCCCc1cccc(O)c1` came in with a melting point of 115 to 117 °C.
Next, `CCN(CC)C(=O)c1sc2nc(CCl)[nH]c(=O)c2c1C`: 174 to 176 °C; `COc1ccc(NC2=NCCS2)cc1OC`: 88 to 90 °C; `Nc1ccc(C(=O)NC2CCCCC2)cc1`: 175 to 177 °C.
On to `O=C(CCl)Nc1cccc(Oc2ccccc2)c1`, for which the melting point was 102 to 104 °C.
Under `CC(Cc1ccc(C(F)(F)F)cc1)C(=O)O` (stereo unspecified) stands 68 to 70 °C.
Next, `N#CCc1nc(N)nc(N)n1`: 280 to 282 °C.
Next, `O=C(O)c1ccc(CN2CCC(O)CC2)cc1`: 219 to 221 °C; `Nn1cncn1`: 64 to 66 °C.
As to `O=C(CCl)N(Cc1ccc(F)cc1)C12CC3CC(CC(C3)C1)C2`, the melting point is 129 to 131 °C.
Regarding `Cc1ccccc1OCC(=O)NN`, the melting point was 120 to 122 °C.
`COC(=O)c1cc2ccc(C)cc2[nH]1` yielded a melting point of 131 to 133 °C.
Under `O=C(O)CNS(=O)(=O)c1cc(C(F)(F)F)ccc1Cl` stands 157 to 159 °C; under `COc1ccc(C(=O)CC(C)(C)C(=O)O)cc1`, 166 to 168 °C; under `O=C1c2ccc([N+](=O)[O-])cc2C(=O)N1c1ccc(F)cc1`, 207 to 209 °C.
On to `Cc1nc(-c2ccc(N)cc2)cc(=O)[nH]1`, for which the melting point was in the range of 259 to 261 °C.
Under `Cn1ccnc1-c1cc(N)on1` stands 178 to 180 °C.
Next, `Cn1cnnc1S(=O)(=O)O`: 170 to 172 °C.
For `CN1CCN(C(=O)Cc2cccc(N)c2)CC1`, the melting point fell in the range of 138 to 140 °C.
`O=C(O)c1ccnc(OCc2ccccc2)c1` had a melting point of 171 to 173 °C.
Next, `O=[N+]([O-])c1c(NC2CC2)cccc1NC1CC1`: 116 to 118 °C; `OCCNc1ccccn1`: 64 to 66 °C; `NNC(=O)c1csc(N2CCOCC2)n1`: 168 to 170 °C.
`O=C(O)C1CCCCC1C(=O)N1CCCC1` (stereo unspecified) displayed a melting point of 119 to 121 °C.
Under `Cc1c(N)cccc1NC(=O)c1ccccc1` stands 193 to 195 °C; under `CC(C)(C)OC(=O)Nc1ccoc1`, 139 to 141 °C; under `CC(=O)N(C)CCCC(=O)O`, 98 to 100 °C.
Under `NNc1ncnc2nc[nH]c12` stands 235 to 237 °C.
Next, `O=C(O)C1CCN(C(=O)c2ccc(Br)cc2)CC1`: 202 to 204 °C.
As to `CC(C)c1c(C(=O)O)cnc2ncnn12`, the melting point lay in the range of 207 to 209 °C.
Next, `CN(C(=O)c1ccccc1N)C1CCCCC1`: 141 to 143 °C.
Next, `NC(=O)COc1cccc(C(=O)O)c1`: 223 to 225 °C; `Cc1ncc(Br)c(N)n1`: 109 to 111 °C.
Under `Nc1c(-c2cccs2)nc2ccccn12` stands 188 to 190 °C; under `NCCS(=O)(=O)Cc1ccccc1`, 76 to 78 °C.
For `O=C(O)c1ccc(S(=O)(=O)NC2CCS(=O)(=O)C2)cc1` (stereo unspecified), the melting point was 303 to 305 °C.
Next, `CCOc1ccccc1-n1nnnc1SCC(=O)O`: 145 to 147 °C; `Nc1cc(=O)[nH]c(=O)n1Cc1ccc(Cl)cc1`: 279 to 281 °C; `CCOC(=O)c1c(CC(C)C)csc1NC(=O)CCl`: 98 to 100 °C.
As to `NC(=O)C1CNc2ccccc2C1` (stereo unspecified), the melting point lay within 121 to 123 °C.
Under `Cc1cc(C)cc(-c2nnc(S)o2)c1` stands 240 to 242 °C; under `O=C(c1ccc(F)cc1)N1CCCCC(Cl)C1=O` (stereo unspecified), 143 to 145 °C; under `O=C(O)c1cn2cccnc2n1`, 255 to 257 °C.
Under `NC(=O)CC(NS(=O)(=O)c1ccccc1F)C(=O)O` (stereo unspecified) stands 165 to 167 °C.
Next, `O=C(O)c1ccc(S(=O)(=O)Cl)c(Cl)c1`: 199 to 201 °C; `CC(C)(C)OC(=O)NCCCCC(=O)O`: 43 to 45 °C.
Compound `CC(C)(C)OC(=O)N1CCC(NC(N)=O)CC1` returned a melting point of 217 to 219 °C.
Regarding `CC(SCC(=O)Nc1cccc(Br)c1)C(=O)O` (stereo unspecified), the melting point was 106 to 108 °C.
In turn, `O=C(O)Cc1csc(-c2cc(Br)cs2)n1` displayed a melting point of 129 to 131 °C.
Regarding `CN(CC(=O)O)c1ccc(C#N)cn1`, the melting point is 170 to 172 °C.
In turn, `Nc1nnc(SCC2COc3ccccc3O2)s1` (stereo unspecified) yielded a melting point of 161 to 163 °C.
Next, `COCCCOc1cccc(C(=O)O)c1`: 81 to 83 °C; `O=C(O)CCCNCc1ccccn1`: 69 to 71 °C; `Nc1ccc(F)c(NC(=O)CCN2CCOCC2)c1`: 119 to 121 °C.
Next, `O=C1OCc2ccc(S(=O)(=O)Cl)cc21`: 104 to 106 °C.
Compound `NC(=O)c1cc(Br)c(N)c(Br)c1` displayed a melting point of 182 to 184 °C.
The compound `CN1CCN(c2ccc(CN)cn2)CC1` returned a melting point of 60 to 62 °C.
In turn, `NNC(=O)CC1CCCCC1` yielded a melting point of 119 to 121 °C.
Next, `Cc1ncsc1C(=O)NC1CCNCC1`: 136 to 138 °C; `CC(N)c1nn[nH]n1` (stereo unspecified): 263 to 265 °C; `O=C(O)c1cnc(-c2ccncc2)s1`: 307 to 309 °C.
Next, `Clc1cc(-c2ccccc2)c2ccccc2n1`: 85 to 89 °C; `O=C(NCCc1cccs1)C1Cc2ccccc2CN1` (stereo unspecified): 86 to 88 °C.
Take `Sc1nnc(NCc2ccco2)s1`: the melting point was in the range of 124 to 126 °C.
For `COC(=O)c1ccc(=O)[nH]n1`, the melting point fell in the range of 188 to 190 °C.
Regarding `Cc1csc(NC(=O)C2CCCNC2)n1` (stereo unspecified), the melting point lay in the range of 164 to 166 °C.
With `O=C(O)CNS(=O)(=O)c1ccc(F)cc1`, the melting point was in the range of 146 to 148 °C.
`O=C(O)C1CCN(S(=O)(=O)c2ccc(Br)s2)CC1` came in with a melting point of 166 to 168 °C.
For `OC1(CCOc2ccccc2)CC1`, the melting point was 57 to 59 °C.
`O=c1[nH]c2cc(Br)ccc2o1` gave a melting point of 209 to 211 °C.
Next, `Cc1cc(C)c2c(=O)[nH]sc2n1`: 195 to 197 °C; `c1ccc(NC2CCCCC2)nc1`: 123 to 125 °C; `CN(C)c1ccc(NCc2ccc3ccccc3n2)cc1`: 104 to 106 °C.
Compound `O=C(O)c1cc(S(=O)(=O)Cl)ccc1F` yielded a melting point of 107 to 109 °C.
Compound `Nc1ccc(N2CCN(S(=O)(=O)C(F)F)CC2)cc1` returned a melting point of 110 to 112 °C.
`Cc1cc(=O)n2nc(CCl)sc2n1` showed a melting point of 183 to 185 °C.
In turn, `CNCCCOc1ccc(S(C)(=O)=O)cc1` came in with a melting point of 43 to 45 °C.
Under `Cc1cn2c(C=O)c(C)nc2s1` stands 153 to 155 °C; under `Nc1cccc(N2C(=O)CNC2=O)c1`, 156 to 158 °C.
The compound `COc1ccc(C(N)Cc2ccc(F)cc2)cc1` (stereo unspecified) returned a melting point of 47 to 49 °C.
`COc1ccccc1NCC(=O)NN` came in with a melting point of 103 to 105 °C.
Next, `COCC(C)C(N)=S` (stereo unspecified): 42 to 44 °C.
